In patent publication US20090149440A1, “NOVEL PYRIDONECARBOXYLIC ACID DERIVATIVES OR SALTS THEREOF” (priority 2004, published 2009):
In brackets after ≈: the same amount, converted by molar mass. Values belong to the compound of their own block, whether it stands above or below them.

Columns and labels:
[1] = Pharmacokinetics: absorbability after oral administration, serum level; assay type: in vivo, dogs; conditions: for Cmax / Tmax / half-life / AUC: dog, male beagle dogs, fasted, 10 mg/kg oral, 0.5% methylcellulose suspension, serum; for AUC: read-out: AUCO to 8 h
Experimental: Absorbability of the compounds shown in Table 4 was investigated in dogs. Specifically, a 0.5% methylcellulose suspension of each test compound (10 mg/kg) was forcedly orally administered to 2- to 4-years old male beagle dogs which had been fasted for 16 to 17 hours. The blood was collected from each dog at 0.25, 0.5, 1, 2, 4, 6, 8, and 24 hours after the administration, and the serum level of the test compound was determined to evaluate absorbability of the compound.

M. luteus IFO12708 = experiment: Antibacterial activity, minimum inhibitory concentration (standard method of the Japanese Society of Chemotherapy); assay type: cell-based; conditions: Micrococcus luteus
Experimental: (§1) Minimum inhibitory concentration (MIC: μg/mL) of the compounds shown in Table 1 was determined according to the standard method of the Japanese Society of Chemotherapy (CHEMOTHERAPY 29(1), 76, 1981).

S. haemolytlcus 67 = experiment: as above; assay type: cell-based
Experimental: as §1

P. mirabilis IFO3849 = experiment: as above; assay type: cell-based; conditions: Proteus mirabilis
Experimental: as §1

MRSA W44 = experiment: as above; assay type: cell-based; conditions: Staphylococcus aureus
Experimental: as §1

female ICR mice = experiment: Phototoxicity test: ear abnormalities after UV irradiation; assay type: in vivo; design: key to Phototoxicity score: normal (0 point); slight erythema (score 1); medium erythema (score 2); serious erythema or edema (score 3); conditions: 40 mg/10 mL/kg intravenously, UV 320 to 400 nm for four hours
Experimental: Each test compound was intravenously administered (40 mg/10 mL/kg) to female ICR mice (5- to 6-weeks old), and the mice were irradiated with UV-rays (320 to 400 nm, 1.8 mW/cm^2/sec) for four hours. Abnormalities induced in the ear of each mouse were observed immediately after (0 hour), 24 hours after, and 48 hours after the irradiation. The abnormality was evaluated according to the following criteria: normal (0 point), slight erythema (score 1), medium erythema (score 2), and serious erythema or edema (score 3).

human serum proteins = experiment: Binding rate to proteins by ultrafiltration method; assay type: in vitro ADME; conditions: 5 μg/mL, 37° C. for 30 minutes
Experimental: Binding rate to proteins of the compounds shown in Table 3 was determined by ultrafiltration method. Specifically, a 0.5 mg/mL DMSO solution of each compound was diluted with human serum or a 0.4% phosphate buffer (pH: 7.4 containing 0.5% NaCl) to thereby prepare a 5 μg/mL solution. The human serum solution was incubated at 37° C. for 30 minutes and centrifugally filtrated through a filter (pore size: 0.22 μm). A portion of the serum filtrate and the phosphate buffer solution were applied to an HPLC system, and the peak area of the compound was measured. Binding rate of each compound to human serum proteins was calculated by the following equation 1: Binding rate (%)=(A−B)×100/A (equation 1) A: Peak area (in phosphate buffer) B: Peak area (in serum filtrate)

melting point: ≥ 244 °C (dec.)
Structure (SMILES): CNc1nc(-n2cc(C(=O)O)c(=O)c3cc(F)c(N4CC(NC(C)C)C4)c(Cl)c32)c(F)cc1F [compound 9, 8-Chloro-1-(3,5-difluoro-6-methylaminopyridin-2-yl)-6-fluoro-7-(3-isopropylaminoazetidin-1-yl)-4-oxo-1,4-dihydroquinolin-3-carboxylic acid]

melting point: ≥ 210 °C (dec.)
Structure (SMILES): CC(C)NC1CN(c2c(F)cc3c(=O)c(C(=O)O)cn(-c4nc(N)c(F)cc4F)c3c2Br)C1.Cl

Cmax [1]: 1490 ng/mL
Tmax [1]: 1 h
half-life [1]: 3.2 h
AUC [1]: 7600 ng·h/mL
Structure (SMILES): CNC1CN(c2c(F)cc3c(=O)c(C(=O)O)cn(-c4nc(N)c(F)cc4F)c3c2Br)C1.O=C(O)/C=C\C(=O)O [compound 3, 1-(6-amino-3,5-difluoropyridin-2-yl) 8-bromo-6-fluoro-7-(3-methylaminoazetidin-1-yl)-4-oxo-1,4-dihydroquinolin-3-carboxylic acid maleic acid salt]

melting point: ≥ 224 °C (dec.)
Structure (SMILES): CC(C)NC1CN(c2c(F)cc3c(=O)c(C(=O)O)cn(-c4nc(N)c(F)cc4F)c3c2Br)C1.CS(=O)(=O)O [compound 13, 1-(6-Amino-3,5-difluoropyridin-2-yl)-8-bromo-6-fluoro-7-(3-isopropylaminoazetidin-1-yl)-4-oxo-1,4-dihydroquinolin-3-carboxylic acid methanesulfonic acid salt]

MIC (M. luteus IFO12708): 0.12 µg/mL (≈ 0.228 µM)
MIC (P. mirabilis IFO3849): 0.25 µg/mL (≈ 0.475 µM)
MIC (MRSA W44): 0.03 µg/mL (≈ 0.057 µM)
Binding rate to proteins (human serum proteins): 64.0%
Structure (SMILES): CC(C)NC1CN(c2c(F)cc3c(=O)c(C(=O)O)cn(-c4nc(N)c(F)cc4F)c3c2Br)C1 [compound 1, 1-(6-Amino-3,5-difluoropyridin-2-yl)-8-bromo-6-fluoro-7-(3-isopropylaminoazetidin-1-yl)-4-oxo-1,4-dihydroquinolin-3-carboxylic acid]
MIC (S. haemolytlcus 67): 4 µg/mL (≈ 7.6 µM)
Phototoxicity incidence (female ICR mice; 0 hour after irradiation): 0/3
Phototoxicity score (female ICR mice; 0 hour after irradiation): 0
Phototoxicity incidence (female ICR mice; 24 hours after irradiation): 0/3
Phototoxicity score (female ICR mice; 24 hours after irradiation): 0
Phototoxicity incidence (female ICR mice; 48 hours after irradiation): 0/3
Phototoxicity score (female ICR mice; 48 hours after irradiation): 0

Cmax [1]: 3730 ng/mL
Tmax [1]: 1 h
half-life [1]: 4.3 h
AUC [1]: 17500 ng·h/mL
Structure (SMILES): CCNC1CN(c2c(F)cc3c(=O)c(C(=O)O)cn(-c4nc(N)c(F)cc4F)c3c2Br)C1.O=C(O)/C=C\C(=O)O [compound 4, 1-(6-amino-3,5-difluoropyridin-2-yl) 8-bromo-7-(3-ethylaminoazetidin-1-yl)-6-fluoro-4-oxo-1,4-dihydroquinolin-3-carboxylic acid maleic acid salt]

MIC (M. luteus IFO12708): 0.25 µg/mL (≈ 0.502 µM)
MIC (P. mirabilis IFO3849): 0.5 µg/mL (≈ 1 µM)
MIC (MRSA W44): 0.06 µg/mL (≈ 0.12 µM)
Binding rate to proteins (human serum proteins): 49.0%
Structure (SMILES): CNC1CN(c2c(F)cc3c(=O)c(C(=O)O)cn(-c4nc(N)c(F)cc4F)c3c2Br)C1 [compound 1, 1-(6-amino-3,5-difluoropyridin-2-yl)-8-bromo-6-fluoro-7-(3-methylaminoazetidin-1-yl)-4-oxo-1,4-dihydroquinolin-3-carboxylic acid]
MIC (S. haemolytlcus 67): 8 µg/mL (≈ 16.1 µM)
Phototoxicity incidence (female ICR mice; 0 hour after irradiation): 0/3
Phototoxicity score (female ICR mice; 0 hour after irradiation): 0
Phototoxicity incidence (female ICR mice; 24 hours after irradiation): 0/3
Phototoxicity score (female ICR mice; 24 hours after irradiation): 0
Phototoxicity incidence (female ICR mice; 48 hours after irradiation): 0/3
Phototoxicity score (female ICR mice; 48 hours after irradiation): 0

melting point: ≥ 238 °C (dec.)
Binding rate to proteins (human serum proteins): 44.3%
Structure (SMILES): CCc1c(N2CC(NC(C)C)C2)c(F)cc2c(=O)c(C(=O)O)cn(-c3nc(N)c(F)cc3F)c12 [compound 3, 1-(6-Amino-3,5-difluoropyridin-2-yl)-6-fluoro-7-(3-isopropylaminoazetidin-1-yl)-8-ethyl-4-oxo-1,4-dihydroquinolin-3-carboxylic acid]

melting point: ≥ 220 °C (dec.)
Structure (SMILES): CNc1nc(-n2cc(C(=O)O)c(=O)c3cc(F)c(N4CC(NC(C)C)C4)c(Br)c32)c(F)cc1F [compound 11, 8-Bromo-1-(3,5-difluoro-6-methylaminopyridin-2-yl)-6-fluoro-7-(3-isopropylaminoazetidin-1-yl)-4-oxo-1,4-dihydroquinolin-3-carboxylic acid]

MIC (M. luteus IFO12708): 0.25 µg/mL (≈ 0.488 µM)
MIC (P. mirabilis IFO3849): 0.25 µg/mL (≈ 0.488 µM)
MIC (MRSA W44): 0.06 µg/mL (≈ 0.117 µM)
Binding rate to proteins (human serum proteins): 62.8%
Structure (SMILES): CCNC1CN(c2c(F)cc3c(=O)c(C(=O)O)cn(-c4nc(N)c(F)cc4F)c3c2Br)C1 [compound 2, 1-(6-amino-3,5-difluoropyridin-2-yl) 8-bromo-7-(3-ethylaminoazetidin-1-yl)-6-fluoro-4-oxo-1,4-dihydroquinolin-3-carboxylic acid]
MIC (S. haemolytlcus 67): 8 µg/mL (≈ 15.6 µM)
Phototoxicity incidence (female ICR mice; 0 hour after irradiation): 0/3
Phototoxicity score (female ICR mice; 0 hour after irradiation): 0
Phototoxicity incidence (female ICR mice; 24 hours after irradiation): 0/3
Phototoxicity score (female ICR mice; 24 hours after irradiation): 0
Phototoxicity incidence (female ICR mice; 48 hours after irradiation): 0/3
Phototoxicity score (female ICR mice; 48 hours after irradiation): 0

melting point: ≥ 205 °C (dec.)
Structure (SMILES): CC(C)NC1CN(c2c(F)cc3c(=O)c(C(=O)O)cn(-c4nc(N)c(F)cc4F)c3c2Cl)C1 [compound 2, 1-(6-Amino-3,5-difluoropyridin-2-yl)-8-chloro-6-fluoro-7-(3-isopropylaminoazetidin-1-yl)-4-oxo-1,4-dihydroquinolin-3-carboxylic acid]

melting point: ≥ 202 °C (dec.)
Structure (SMILES): CCNc1nc(-n2cc(C(=O)O)c(=O)c3cc(F)c(N4CC(NC(C)C)C4)c(C)c32)c(F)cc1F [compound 8, 1-(6-Ethylamino-3,5-difluoropyridin-2-yl)-6-fluoro-7-(3-isopropylaminoazetidin-1-yl)-8-methyl-4-oxo-1,4-dihydroquinolin-3-carboxylic acid]

melting point: ≥ 193 °C (dec.)
Binding rate to proteins (human serum proteins): 26.8%
Structure (SMILES): Cc1c(N2CC(NC(C)(C)C)C2)c(F)cc2c(=O)c(C(=O)O)cn(-c3nc(N)c(F)cc3F)c12 [compound 6, 1-(6-Amino-3,5-difluoropyridin-2-yl)-7-(3-tert-butylaminoazetidin-1-yl)-6-fluoro-8-methyl-4-oxo-1,4-dihydroquinolin-3-carboxylic acid]

melting point: ≥ 250 °C (dec.)
Structure (SMILES): CC(C)(C)NC1CN(c2c(F)cc3c(=O)c(C(=O)O)cn(-c4nc(N)c(F)cc4F)c3c2Cl)C1 [compound 5, 1-(6-Amino-3,5-difluoropyridin-2-yl)-7-(3-tert-butylaminoazetidin-1-yl)-8-chloro-6-fluoro-4-oxo-1,4-dihydroquinolin-3-carboxylic acid]

melting point: ≥ 225 °C (dec.)
Binding rate to proteins (human serum proteins): 44.9%
Structure (SMILES): CC(C)(C)NC1CN(c2c(F)cc3c(=O)c(C(=O)O)cn(-c4nc(N)c(F)cc4F)c3c2Br)C1 [compound 4, 1-(6-Amino-3,5-difluoropyridin-2-yl)-8-bromo-7-(3-tert-butylaminoazetidin-1-yl)-6-fluoro-4-oxo-1,4-dihydroquinolin-3-carboxylic acid]

melting point: ≥ 218 °C (dec.)
Structure (SMILES): CNc1nc(-n2cc(C(=O)O)c(=O)c3cc(F)c(N4CC(NC(C)C)C4)c(C)c32)c(F)cc1F [compound 7, 1-(3,5-Difluoro-6-methylaminopyridin-2-yl)-6-fluoro-7-(3-isopropylaminoazetidin-1-yl)-8-methyl-4-oxo-1,4-dihydroquinolin-3-carboxylic acid]

melting point: ≥ 248 °C (dec.)
Structure (SMILES): CC(C)Nc1nc(-n2cc(C(=O)O)c(=O)c3cc(F)c(N4CC(NC(C)C)C4)c(Cl)c32)c(F)cc1F [compound 10, 8-Chloro-1-(3,5-difluoro-6-isopropylaminopyridin-2-yl)-6-fluoro-7-(3-isopropylaminoazetidin-1-yl)-4-oxo-1,4-dihydroquinolin-3-carboxylic acid]

Binding rate to proteins (human serum proteins): 64.0%
Cmax [1]: 5250 ng/mL
Tmax [1]: 1 h
half-life [1]: 5.8 h
AUC [1]: 30900 ng·h/mL
Pharmacokinetics (in words) ([1]; dogs, oral, compared with comparative compounds 3 and 4): remarkably improved
Structure (SMILES): CC(C)NC1CN(c2c(F)cc3c(=O)c(C(=O)O)cn(-c4nc(N)c(F)cc4F)c3c2Br)C1.O=C(O)/C=C\C(=O)O [compound 12, 1-(6-amino-3,5-difluoropyridin-2-yl)-8-bromo-6-fluoro-7-(3-isopropylaminoazetidin-1-yl)-4-oxo-1,4-dihydroquinolin-3-carboxylic acid maleic acid salt]
